The METLIN SMRT retention time set (Domingo-Almenara et al. 2019)

Test: gradient 5% acetonitrile 3 min, to 50% in 2 min, to 85% in 15 min, held 3 min, 100 µL/min
Details: column: Zorbax Extend-C18 2.1 x 50 mm; eluents: water / acetonitrile, 0.1% formic acid
Outline: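 The mobile phases were water and acetonitrile, each with 0.1% formic acid, pumped at 100 μL/min through a Zorbax Extend-C18 column (2.1 × 50 mm, 1.8 μm). Pure standards were injected as mixtures of ~100 molecules and detected by a quadrupole time-of-flight mass spectrometer in positive and negative ionization mode. Retention time came from computationally picked adduct peaks, each inspected by hand.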
In the case of `CC(C)(C)NC(=O)N1CCC(CNS(=O)(=O)c2ccc(Br)s2)CC1`, the RP-LC retention time is reported as 818 s. For `O=C(NCc1cccs1)C1CN(C(=O)c2ccc(F)c(F)c2)C1`, the RP-LC retention time was 688 s. `O=C(NC1CCCc2ccccc21)C1CCCN(c2ccnc(-c3ccc(F)cc3)n2)C1` (centres undefined) showed an RP-LC retention time of 734 s. For `O=C(O)CCc1ccc(NCc2cccc(Oc3ccccc3)c2)cc1`, the RP-LC retention time was 1040 s. In the case of `CC(=O)c1ccc(N2CCN(S(=O)(=O)CCCOc3ccc(F)cc3)CC2)cc1`, the RP-LC retention time is reported as 753 s. For `O=C(CCCS(=O)(=O)c1ccc(F)cc1)Nc1cccc(Cl)c1Cl`, the RP-LC retention time was 850 s. Molecule `CCOC(=O)c1[nH]c(C)c(C(=O)C(C)N(CCC(C)C)C(=O)c2ccc(C)cc2)c1C` (centres undefined) has an RP-LC retention time of 1110 s. With `CCC(C)C(NC(=O)c1ccc(C(F)(F)F)cc1)C(=O)Nc1nc2ccccc2[nH]1` (centres undefined) the RP-LC retention time was 847 s. Work on `Cc1csc(COc2ccc(C(=O)NC(C)CCc3ccccc3)cc2)n1` (centres undefined) yielded an RP-LC retention time of 595 s. `COCCCNC(=O)C1CCN(Cc2cc3ccccc3n2Cc2ccccc2)CC1` gave an RP-LC retention time of 684 s. With `CNC(=O)c1cc(Cc2ccc3nc(Nc4cccc(C(F)(F)F)c4)[nH]c3c2)ccn1` the RP-LC retention time was 680 s. For `CCc1ccc2oc(C(=O)NCC(c3ccccc3)N(C)C)cc(=O)c2c1` (centres undefined), the RP-LC retention time was 642 s. Work on `CNC(=O)c1ccccc1Nc1cc(Nc2ccc(N3CCOCC3)cc2OC)ncc1C(F)(F)F` yielded an RP-LC retention time of 764 s. With `Cc1ccc(-c2nccn3cc(C(=O)N4CCN(C5CCCCC5)CC4)nc23)cc1` the RP-LC retention time was 682 s. In the case of `O=C(CSc1ncnc2c1nnn2Cc1ccc(F)cc1)N1CCCC1`, the RP-LC retention time is reported as 764 s. In the case of `O=C(Cn1cccc1-c1nnc(-c2ccccc2)o1)N1CCC2(CC1)OCCO2`, the RP-LC retention time is reported as 834 s. Work on `CCCn1cc(-c2nc(-c3cccnc3)no2)c(=O)c2cc(F)ccc21` yielded an RP-LC retention time of 770 s. Work on `COc1ccc(-c2cn3c(n2)N(C(=O)c2cccs2)CCC3)cc1` yielded an RP-LC retention time of 883 s. Molecule `CN(C)C[C@@H]1CN(c2ncccn2)C[C@H]1NC(=O)c1ccc(Cl)s1` has an RP-LC retention time of 605 s. `O[C@@H]1CCCC[C@H]1N1CCC(c2ccccc2)CC1` gave an RP-LC retention time of 661 s. Molecule `CC(C)Oc1ccc(CNS(=O)(=O)c2cc3c(s2)CCN(C(=O)C2CCC2)C3)cc1` has an RP-LC retention time of 1010 s. Molecule `O=c1c2oc3ccccc3c2ncn1Cc1nc(-c2cccc(Br)c2)no1` has an RP-LC retention time of 1060 s. `Cc1cc(C)n(CCNC(=O)CSc2ccc(F)cc2)n1` gave an RP-LC retention time of 675 s. In the case of `CCn1nccc1C(=O)N1C[C@@H]2C[C@H](NS(=O)(=O)c3ccccc3)[C@H]1C2`, the RP-LC retention time is reported as 677 s. For `CCOC(=O)C1CCN(S(=O)(=O)c2cccc(-c3nc(-c4ccccc4)no3)c2)CC1`, the RP-LC retention time was 1210 s. Work on `O=C(c1cccs1)N1CCn2c(nnc2-c2ccccc2)C1` yielded an RP-LC retention time of 656 s. With `CCCNS(=O)(=O)c1cc(-c2nc(C)cs2)n(CC(=O)N2CCCCC2)c1` the RP-LC retention time was 869 s. Work on `Cc1[nH]c(C)c(S(=O)(=O)N2CCC(C(=O)Nc3ccc(F)cc3)CC2)c1C(=O)N1CCCC1` yielded an RP-LC retention time of 710 s. For `O=C(NC1CCCC1)c1c2c(nc3ccc(F)cc13)CCC2`, the RP-LC retention time was 750 s. Molecule `Cc1cccc(N2CCN(c3ccc4cc(S(=O)(=O)N5CCOCC5)ccc4n3)CC2)c1C` has an RP-LC retention time of 1080 s. Work on `COc1ccc(OC)c(S(=O)(=O)N2CCC(n3c(C)cnc3C)CC2)c1` yielded an RP-LC retention time of 630 s. `Cc1cc(-c2nnc3sc(COc4ccc(C(C)(C)C)cc4)nn23)n[nH]1` gave an RP-LC retention time of 967 s. For `O=C(Cn1cccc(-c2nc(-c3ccc(Br)cc3)no2)c1=O)Nc1ccc2c(c1)OCO2`, the RP-LC retention time was 935 s. For `O=C(NC1CC1)c1ccc2c(c1)CCN2C(=O)C1CCCC1`, the RP-LC retention time was 948 s. With `CC(C)c1csc(-c2csc(S(=O)(=O)NCc3ccc(F)cc3)c2)n1` the RP-LC retention time was 1120 s. With `O=C(NC1CCCCCCC1)C1CCCN(C(=O)c2cc(-c3cccnc3)n[nH]2)C1` (centres undefined) the RP-LC retention time was 631 s. With `CCn1cc(C)c(C(=O)O)c1CC(=O)Nc1cc(F)ccc1F` the RP-LC retention time was 859 s. In the case of `CCn1cc(CN2CCC(C(=O)NCc3ccco3)CC2)c2cc(Cl)ccc21`, the RP-LC retention time is reported as 722 s. With `Cc1nnc(-c2ccc3ccn(CC(=O)Nc4ccccc4)c3c2)o1` the RP-LC retention time was 778 s. Work on `Cc1noc([C@@H]2CC(F)(F)CN2C(=O)c2cc(C)[nH]n2)n1` yielded an RP-LC retention time of 604 s. `CCn1c(=O)c(Nc2ccc(C)c(Cl)c2)nc2ccncc21` showed an RP-LC retention time of 649 s. `COc1ccc(CCS(=O)(=O)Nc2ccc3c(c2)N(C(=O)C2CCCO2)CC3)cc1` (centres undefined) gave an RP-LC retention time of 762 s. Molecule `Cc1cc(N(C)C)n2nc(CN3CCN(c4cccc(C)c4C)CC3)nc2n1` has an RP-LC retention time of 655 s. `O=C(Nc1cccc(Cl)c1)c1c(O)c2cccnc2n(-c2ccc(F)cc2)c1=O` gave an RP-LC retention time of 1320 s.
